Values joined by “and” are separate entries in the source; they are usually repeats but may differ in a detail not shown here. Identical values can stand only once.
How the values were obtained:
[1] = biological target: T1, Recombinant Human TACE/ADAM17 (Homo sapiens, UniProt P78536); experiment: Cell free TACE/ADAM17 activity; type: biochemical; settings: cell-free assay; AAT Sigma Aldrich, batch A6150; read-out: IC50 of TACE activity inhibition
T1 construct: purchased R&D Systems 930-ADB-010
Description: TACE activity and its inhibition by human AAT (AAT) was performed with Recombinant Human TACE/ADAM17 kit (930-ADB and ES003, R&D Systems) in black 96-well immuno plates (437111, ThermoFisher Scientific). The enzymatic activity of TACE/ADAM17 was measured by mixing 0.005 μg of rhTACE with 10 μM of Mca-PLAQAV-Dpa-RSSSR-NH2 fluorogenic peptide substrate III in assay buffer (25 mM Tris, 2.5 μM ZnCl2, 0.005% Brij-35 (w/v), pH 9.0) to a final volume of 100 μl. AAT (Sigma Aldrich, batch A6150) was resuspended in water (vehicle), control TACE/ADAM17 activity was assessed in presence of the vehicle (amount used for AAT 100 μM). AAT was added at different concentration (0, 6.25, 12.5, 25, 50 and 100 μM) to assess its dose-dependent inhibition of TACE/ADAM17. All conditions were performed in triplicates. Activity was measured as relative fluorescent unit (RFU) in a kinetic mode (9 time points over 5 min) with a SpectraMax iD3 Microplate Reader (low PMT gain, is exposition, top read at 1 mm, wavelength: excitation 320 nm, emission 405 nm). Bar graph as percentage of control activity was obtained by averaging the values obtained over the 5 min for each of the condition.
TACE activity is assessed according to the manufacturer's instruction (Recombinant Human TACE/ADAM17 kit, 930-ADB, R&D Systems) in kinetic mode, without or with different AAT concentration. All conditions were done in triplicates and are shown as mean±SD (FIGS. 5A, 5B and 5C).
ADAM-17 activity and its inhibition by human peptide 8 was measured with Recombinant Human ADAM-17 kit (Recombinant Human TACE/ADAM17 Protein, CF: 930-ADB-010 and Mca-PLAQAV-Dpa-RSSSR-NH2 Fluorogenic Peptide Substrate:ES003; R&D Systems) in black 96-well immunoplates (437111; Thermo Fisher Scientific). The enzymatic activity of ADAM-17 was measured by mixing 0.005 μg of rhADAM-17 with 10 μM of Mca-PLAQAV-Dpa-RSSSR-NH2 fluorogenic peptide substrate III in assay buffer (25 mM Tris, 2.5 μM ZnCl2, 0.005% Brij-35 (w/v), pH 9.0) to a final volume of 100 μL. Peptide 8 (Syngene) was dissolved in DMSO and diluted to the desired concentration in assay buffer. Control ADAM-17 activity was assessed in the presence of the assay buffer. […] All conditions were performed in triplicate. Activity was measured as relative fluorescent units (RFU) in endpoint mode (5 min) with a SpectraMax iD3 Microplate Reader (automatic PMT gain, wavelengths: excitation 320 nm, emission 405 nm).

CIDP mice = experiment: Grip strength test, CIDP mouse model; type: in vivo; settings: for Grip strength (Mean ± SD): CIDP mice; for Grip strength, group Mean: group mean of 4 animals; for Grip strength, Mean/animal: per animal; for Grip strength, Mean/animal / Grip strength, set 1 / Grip strength, set 2 / Grip strength, set 3: listed as hAAT; for Grip strength, set 1 / Grip strength, set 2 / Grip strength, set 3: raw data per animal
Description: (§1) C57BL/6 mice were received at 8 weeks of age and housed under controlled conditions for the duration of the study. Three groups of 4 animals each were assigned to the following subcutaneous treatments twice daily at 7:00 AM and 7:00 PM for 2 weeks, from 20 to 35 days after the start of disease induction: • Wild type (WT) mice receiving the vehicle, 0.9% NaCl (positive control) • CIDP mice receiving the vehicle, 0.9% NaCl (negative control) • CIDP mice receiving human AAT (AAT), 50 mg/kg per injection
(§2) Disease induction consisted in subcutaneous injection of mouse sciatic nerve homogenate in phosphate buffer saline (PBS)+Freund's adjuvant mixture at 10 mL/kg. For each treatment, 3 different body sites injections were performed. Control mice also received three subcutaneous injections of PBS+Freund's adjuvant at the same 3 different body sites.
On the first (Day 20) and last (Day 35) day of treatment, the neuromuscular and performance of animals was tested with a rotarod test, grip test and a sensory test using the Von Frey filament test, as well as sciatic nerve electrophysiology test. After the last treatment at Day 35, these tests were repeated, animals were sacrificed and the left sciatic nerve was sampled for histological evaluation of the number and size of […].

[2] = Bodyweight, CIDP mouse model; type: in vivo; settings: per animal, listed as hAAT
Description: as §1, §2

plasma TNFα = experiment: Plasma TNFα, CMT mice treated with AAT 180 mg/kg/day sc; type: in vivo, mouse
Excerpt: Animals were received at 6 weeks of age and housed under controlled conditions for the duration of the study. The study comprised two groups of 8 transgenic mice (CMT mice) each and one group of 8 age matched wild type (WT) C57B16 mice, serving as positive control. Animals were assigned to the following subcutaneous treatments twice daily at 7:00 AM and 7:00 PM for 2 weeks, starting from 8 weeks and up to 10 weeks of age: • Wild-type (WT, no disease) mice receiving vehicle, 0.9% NaCl (positive control) • CMT1A mice receiving vehicle, 0.9% NaCl (negative control) • CMT1A mice receiving AAT at 90 mg/kg per injection (daily dose 180 mg/kg)
The efficacy parameters included: • neuromuscular performance (rotarod latency to fall and grip strength test), • sciatic nerve electrophysiology (CMAP amplitude and NCV) • cytokine (IL-6 and TNFα), as well as NfL analysis • sciatic nerve histology (number of axons and axonal diameter),
As supportive information for the mode of action of AAT in CMT, plasma concentration of interleukin 6 (IL-6) and TNFα were measured at Day 1 (8 weeks), Day 15 (10 weeks) and Day 30 (12 weeks). At the same timepoints, plasma levels of the biomarker of nerve damage, NfL were determined.

T1 sequence (P78536 215-671 limits assumed): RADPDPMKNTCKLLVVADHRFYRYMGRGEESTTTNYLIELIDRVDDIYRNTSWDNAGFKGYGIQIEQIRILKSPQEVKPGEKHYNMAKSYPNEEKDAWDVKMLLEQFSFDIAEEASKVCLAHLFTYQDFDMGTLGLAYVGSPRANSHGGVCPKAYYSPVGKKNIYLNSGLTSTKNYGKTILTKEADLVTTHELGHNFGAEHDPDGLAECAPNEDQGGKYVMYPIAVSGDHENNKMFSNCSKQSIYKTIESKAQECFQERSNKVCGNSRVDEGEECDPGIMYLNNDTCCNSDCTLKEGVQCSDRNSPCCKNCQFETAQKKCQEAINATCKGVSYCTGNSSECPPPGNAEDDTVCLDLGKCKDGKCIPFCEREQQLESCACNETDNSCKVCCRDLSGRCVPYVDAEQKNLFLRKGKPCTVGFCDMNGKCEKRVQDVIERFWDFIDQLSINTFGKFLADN

Substance: alpha1-antitrypsin (AAT) protein
- IC50 [1]: 15.3 µM
- grip strength compared to the vehicle treated group (CIDP mice; CIDP + AAT 50 mg/kg sc twice daily, Day 35): increase
- Grip strength (Mean ± SD) (CIDP mice; Day 20 (baseline)): 2.89 ± 0.32 newtons
- Grip strength (Mean ± SD) (CIDP mice; Day 35, AAT 50 mg/kg sc twice daily): 3.59 ± 0.35 newtons
- Grip strength, group Mean (CIDP mice; Baseline (Day 20)): 2.89 Newton
- Grip strength, group Mean (CIDP mice; Day 35): 3.59 Newton
- Grip strength, Mean/animal (CIDP mice; Baseline (Day 20)): 2.46 Newton and 3.19 Newton and 2.83 Newton and 3.08 Newton
- Grip strength, Mean/animal (CIDP mice; Day 35): 3.68 Newton and 3.69 Newton and 3.91 Newton and 3.10 Newton
- Grip strength, set 1 (CIDP mice; Baseline (Day 20)): 2.92 Newton and 3.06 Newton and 2.89 Newton and 3.50 Newton
- Grip strength, set 2 (CIDP mice; Baseline (Day 20)): 2.43 Newton and 2.09 Newton and 2.45 Newton and 2.62 Newton
- Grip strength, set 3 (CIDP mice; Baseline (Day 20)): 2.04 Newton and 4.42 Newton and 3.14 Newton and 3.13 Newton
- Grip strength, set 1 (CIDP mice; Day 35): 4.92 Newton and 4.55 Newton and 5.15 Newton and 3.47 Newton
- Grip strength, set 2 (CIDP mice; Day 35): 3.53 Newton and 2.00 Newton and 3.04 Newton and 2.61 Newton
- Grip strength, set 3 (CIDP mice; Day 35): 2.58 Newton and 4.52 Newton and 3.53 Newton and 3.23 Newton
- Bodyweight ([2]; day 1 (before disease induction), in g (unit assumed)): 20.74 and 20.81 and 19.50 and 20.65
- Bodyweight ([2]; day 5 (before treatment), in g (unit assumed)): 20.92 and 21.07 and 20.12 and 20.71
- Bodyweight ([2]; day 9 (before treatment)): 21.26 (2×) and 20.54 and 21.00
- Bodyweight ([2]; day 13 (before treatment), in g (unit assumed)): 21.76 and 21.37 and 20.24 and 21.18
- Bodyweight ([2]; day 17 (before treatment), in g (unit assumed)): 21.92 and 21.54 and 21.35 and 21.90
- Bodyweight ([2]; day 20 (first treatment day), in g (unit assumed)): 22.06 and 21.58 and 21.41 and 22.04
- Bodyweight ([2]; day 23, in g (unit assumed)): 22.21 and 21.71 and 21.43 and 22.13
- Bodyweight ([2]; day 26, in g (unit assumed)): 22.31 and 21.78 and 21.47 and 22.20
- Bodyweight ([2]; day 29, in g (unit assumed)): 22.49 and 21.87 and 21.53 and 22.30
- Bodyweight ([2]; day 32, in g (unit assumed)): 22.68 and 22.00 and 21.64 and 22.45
- Bodyweight ([2]; day 35, in g (unit assumed)): 22.79 and 22.14 and 21.65 and 22.62
- Plasma TNFα (Mean ± SD) (plasma TNFα; 8 weeks old (baseline, Day 1), CMT1A + AAT): 9.80 ± 2.25 pg/mL
- Plasma TNF-α concentration, group Mean (plasma TNFα; 8 weeks old, CMT + hAAT 180 mg/kg/day SC, 8 animals): 6.94 pg/mL
- Plasma TNF-α concentration (plasma TNFα; 8 weeks old, CMT + hAAT 180 mg/kg/day SC, individual animal): 7.04 pg/mL and 7.89 pg/mL and 7.91 pg/mL and 5.44 pg/mL and 7.90 pg/mL and 5.34 pg/mL and 8.02 pg/mL and 5.95 pg/mL
- Plasma TNFα (Mean ± SD) (plasma TNFα; 10 weeks old (Day 15, after 2 weeks AAT 90 mg/kg sc twice daily)): 6.55 ± 2.11 pg/mL
- positive effect on TNFα plasma levels (plasma TNFα; 12 weeks of age, after 2-week treatment-free period): remained significant
- Plasma TNFα (Mean ± SD) (plasma TNFα; 12 weeks old (Day 30, after 2-week treatment-free period)): 11.61 ± 1.00 pg/mL
- plasma levels of TNFα (plasma TNFα; CMT mice, AAT 90 mg/kg sc twice a day, P<0.0001): reduced

From US20260028390A1, “ALPHA1-ANTITRYPSIN FOR USE IN THE TREATMENT OF DISEASES OR DISORDERS OF THE NERVOUS SYSTEM SUCH AS CHRONIC INFLAMMATORY DEMYELINATING POLYNEUROPATHY” (Ageronix SA, priority 2022, published 2026)
